Source: ChEMBL document CHEMBL1201862, “PubChem BioAssay data set” (2004)
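These data come from cells grown in 96-well plates and exposed to compound for 48 hours at five concentrations. The concentration for 50% growth inhibition is given as GI50.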 Calls of active or inactive are those of the source. No stated cut-off is given here; in the data, active = GI50 up to about 1.1 µM and inactive = higher.

Key:
Experiment in all cases: NCI-60 cell line screen, 48 h
ACHN = system: ACHN
EKVX = system: EKVX
HCT-116 = system: HCT-116
HOP-92 = system: HOP-92
M14 = system: M14
MOLT-4 = system: MOLT-4
NCI-H226 = system: NCI-H226
NCI-H460 = system: NCI-H460
PC-3 = system: PC-3
SF-539 = system: SF-539
SNB-75 = system: SNB-75
UACC-257 = system: UACC-257
A498 = system: A498
CAKI-1 = system: CAKI-1
COLO 205 = system: COLO 205
HCT-15 = system: HCT-15
HOP-62 = system: HOP-62

SMILES | GI50 (ACHN) | GI50 (EKVX) | GI50 (HCT-116) | GI50 (HOP-92) | GI50 (M14) | GI50 (MOLT-4) | GI50 (NCI-H226) | GI50 (NCI-H460) | GI50 (PC-3) | GI50 (SF-539) | GI50 (SNB-75) | GI50 (UACC-257) | GI50 (A498) | GI50 (CAKI-1) | GI50 (COLO 205) | GI50 (HCT-15) | GI50 (HOP-62)
COc1ccc(-n2cnn3c(=O)c4cn[nH]c4nc23)cc1 | > 10 µM (inactive) | > 10 µM (inactive) | > 10 µM (inactive) | 0.748 µM (active) | > 10 µM (inactive) | > 10 µM (inactive) | > 10 µM (inactive) | > 10 µM (inactive) | > 10 µM (inactive) | > 10 µM (inactive) | > 10 µM (inactive) | > 10 µM (inactive) |  |  |  |  | 
COc1cc(N/N=C/C#N)cc(OC)c1OC | 4.86 µM (inactive) | > 10 µM (inactive) | > 10 µM (inactive) |  | > 10 µM (inactive) | 2.92 µM (inactive) | > 10 µM (inactive) | > 10 µM (inactive) | > 10 µM (inactive) | > 10 µM (inactive) | 9.16 µM (inactive) |  | > 10 µM (inactive) | 4.07 µM (inactive) | 4.86 µM (inactive) | > 10 µM | > 10 µM (inactive)
COC(=O)C1=C(C(=O)OC)C(N(C)C)C(C(=O)OC)=C(C(=O)OC)S1 | > 100 µM (inactive) |  | > 100 µM (inactive) |  | > 100 µM (inactive) | > 100 µM (inactive) | > 100 µM (inactive) | 57.1 µM (inactive) | > 100 µM (inactive) |  | > 100 µM (inactive) | > 100 µM (inactive) | > 100 µM (inactive) | > 100 µM (inactive) | > 100 µM (inactive) | > 100 µM | > 100 µM (inactive)
Cc1ccc(S(=O)(=O)N/N=C/c2c(O)ccc3ccccc23)cc1 | 23.9 µM (inactive) | 32.1 µM (inactive) | 15.3 µM (inactive) |  | 22.1 µM (inactive) | 20.5 µM (inactive) |  | 26.3 µM (inactive) | 20.7 µM (inactive) | 16.1 µM (inactive) | 20.7 µM (inactive) | 37.3 µM (inactive) | 16.7 µM (inactive) | 17.9 µM (inactive) | 19.5 µM (inactive) | 24.5 µM | 37.7 µM (inactive)
N#Cc1cc2c(cc1C#N)/C(=N\c1cccc(N)n1)N/C2=N\c1cccc(N)n1 | 20.4 µM (inactive) | > 100 µM (inactive) | 11.1 µM (inactive) |  | 17.5 µM (inactive) | 3.78 µM (inactive) | > 100 µM (inactive) | 22.4 µM (inactive) | 17.9 µM (inactive) | 6.75 µM (inactive) | 15.6 µM (inactive) | 28.1 µM (inactive) | > 10 µM (inactive) | 15.8 µM (inactive) | 15 µM (inactive) | 16.3 µM | 24.3 µM (inactive)
COc1cc(Nc2nc3ccc(C(F)(F)F)cc3nc2C(=O)O)cc(OC)c1OC | 27.4 µM (inactive) | 34.9 µM (inactive) | 18.5 µM (inactive) |  | 30 µM (inactive) | 29.2 µM (inactive) | 21.4 µM (inactive) | 21.2 µM (inactive) | 24.4 µM (inactive) | 31.4 µM (inactive) | 46 µM (inactive) | 20 µM (inactive) |  | 24.8 µM (inactive) | 19.8 µM (inactive) | 18.2 µM | 18.2 µM (inactive)
CCOC(=O)/C(=N/Nc1ccc(Cl)cc1)N1C(=S)N(C)N=C(C)C=C1S | > 100 µM (inactive) | 24.3 µM (inactive) | > 100 µM (inactive) | 50.7 µM (inactive) | > 100 µM (inactive) | > 100 µM (inactive) |  | 26.7 µM (inactive) |  | 57.1 µM (inactive) | 24.2 µM (inactive) | > 100 µM (inactive) |  | 54.5 µM (inactive) | > 100 µM (inactive) | > 100 µM | 
CN(C)CCCCN1CCc2c(n(C)c3ccccc23)C1=O | 72.1 µM (inactive) | 36 µM (inactive) | 22.4 µM (inactive) | 42.6 µM (inactive) | 18.4 µM (inactive) | 50.6 µM (inactive) | > 59.7 µM (inactive) |  |  |  | 22.3 µM (inactive) | 16.5 µM (inactive) |  | 29.6 µM (inactive) | 18.1 µM (inactive) | 27.9 µM | 38.7 µM (inactive)
